Measurements taken from US6713628B2, “Process for preparing pharmacologically acceptable salt of N-(1(S)-ethoxycarbonyl-3-phenylpropyl)-L-alanyl-amino acid” (Kaneka Corporation, priority 1997, dated 2004).
Each block holds one molecule with its values, some of them ahead of it.

What was measured:
Assay type in all cases: physicochemical
[1] = Formation of diketopiperazine derivative (3) from the Example 10 oil in ethyl acetate of given water content, 10° C., 6 hours, HPLC (Example 10); settings: about 12% by weight solution
Protocol: (§1) The HPLC analysis was carried out under the following conditions:
To 5.00 g (28.2 mmol) of 1,2,3,4-tetrahydroisoquinoline-3-carboxylic acid were added 20 ml of ethyl acetate and 10 ml of H2O and, then, the pH was adjusted to 10.5 with 30% by weight NaOH aqueous solution. The inner temperature was regulated to 20° C. and, then, 4.31 g (14.1 mmol) of a crystal of N-(1(S)-ethoxycarbonyl-3-phenylpropyl)-L-alanine.N-carboxyanhydride was slowly added over 5 hours with stirring. During the addition, the reaction mixture was maintained at a pH of 10.5±1.0 with adding dropwise 30% by weight NaOH aqueous solution, and simultaneously, the inner temperature was maintained at 20° C. and the agitating power was maintained at 1.3 kW/m^3. After completion of the addition, the stirring was continued for 2 hour under the same conditions. The mixture was cooled to 5° C., and the pH thereof was adjusted to 4.5±0.2 with 35% by weight HCl. Then, under the same conditions, the stirring was continued for 10 minutes to complete the decarboxylation. The deposited material was removed by filtration under reduced pressure, and the organic phase was separated at 5° C. and the water phase was further extracted once with 20 ml of ethyl acetate at 10° C. The resulting organic phases were mixed and then washed three times with H2O in an amount of 5% by volume of the organic phase at 5° C. The organic phase was concentrated under reduced pressure to obtain 6.43 g of an oil. The oil was dissolved in ethyl acetate having a water content shown in Table 5 to prepare a solution having a concentration of about 12% by weight, and the resulting solution was stirred for 6 hours at 10° C. The amount produced of the diketopiperazine derivative (3) was analyzed with HPLC, and the relation between water content and the average increase in the diketopiperazine derivative (3) per hour was investigated.

[2] = Formation of diketopiperazine derivative (3) from enalapril maleate in ethyl acetate containing 0.1% water or in H2O, 60° C., 6 hours, HPLC (Example 9); settings: 16% by weight
Protocol: as §1
According to Example 1, N-(1(S)-ethoxycarbonyl-3-phenylpropyl)-L-alanyl-L-proline maleate was prepared. Thereto was added ethyl acetate containing 0.1% water or H2O to prepare a solution having a concentration of 16% by weight, and the solution was warmed to 60° C. and stirred for 6 hours. The amount produced of the diketopiperazine derivative (3) was analyzed with HPLC, and the relation between water content and the average increase in the diketopiperazine derivative (3) per hour was investigated.

[3] = Formation of diketopiperazine derivative (3) from enalapril in ethyl acetate of given water content or in water, 30° C., 6 hours, HPLC (Example 8); settings: about 13% by weight solution
Protocol: as §1
According to Example 1, an ethyl acetate solution of N-(1(S)-ethoxycarbonyl-3-phenylpropyl)-L-alanyl-L-proline was prepared. 129.40 Grams of this organic phase was washed twice with 30 ml of saturated brine, and dehydrated with magnesium sulfate. The solvent was concentrated and, then, the concentrated liquid was dried under reduced pressure to obtain an oily reaction product. This product was dissolved in ethyl acetate having a water content shown in Table 3 or water to prepare a solution having a concentration of about 13% by weight, and the solution was warmed to 30° C. and stirred for 6 hours. The amount produced of the diketopiperazine derivative (3) was analyzed with HPLC, and the relation between water content and the average increase in the diketopiperazine derivative (3) per hour was investigated. The molar ratio in Table 3 means mol number of water per 1 mol of N-(1(S)-ethoxycarbonyl-3-phenylpropyl)-L-alanyl-L-proline.

[4] = Partition of enalapril between ethyl acetate and water against temperature, HPLC (Example 11); settings: ethyl acetate solution + H2O 10% by volume
Protocol: as §1
According to Example 1, an ethyl acetate solution of N-(1(S)-ethoxycarbonyl-3-phenylpropyl)-L-alanyl-L-proline was prepared. To 50 ml of the ethyl acetate solution was added H2O in an amount of 10% by volume (based on ethyl acetate). The mixture was stirred for 10 minutes at each temperature shown in Table 6, and allowed to stand still for 10 minutes and, then, separated. The amount of N-(1(S)-ethoxycarbonyl-3-phenylpropyl)-L-alanyl-L-proline in the water-saturated organic phase was analyzed with HPLC, and the relation between the temperature and the partition ratio to the organic phase was investigated.

Average increase per hour of diketopiperazine derivative (3) ([1]; water content 0.1% by weight): 5.3 % by weight/hr | Average increase per hour of diketopiperazine derivative (3) ([1]; water content 1.0% by weight): 2.2 % by weight/hr | Average increase per hour of diketopiperazine derivative (3) ([1]; water content 2.1% by weight): 1.7 % by weight/hr | Average increase per hour of diketopiperazine derivative (3) ([1]; water content 3.8% by weight): 1.3 % by weight/hr
SMILES: CCOC(=O)[C@H](CCc1ccccc1)N[C@@H](C)C(=O)N1Cc2ccccc2C[C@H]1C(=O)O [Example 10]

Average increase per hour of diketopiperazine derivative (3) ([2]; H2O): 0.06 % by weight/hr | Average increase per hour of diketopiperazine derivative (3) ([2]; ethyl acetate containing 0.1% water): 0.55 % by weight/hr
SMILES: CCOC(=O)[C@H](CCc1ccccc1)N[C@@H](C)C(=O)N1CCC[C@H]1C(=O)O.O=C(O)/C=C\C(=O)O [N-(1(S)-ethoxycarbonyl-3-phenylpropyl)-L-alanyl-L-proline maleate]

Average increase per hour of diketopiperazine derivative (3) ([3]; ethyl acetate, water content 0.1% by weight (molar ratio 0.1)): 2.85 % by weight/hr | Average increase per hour of diketopiperazine derivative (3) ([3]; ethyl acetate, water content 0.4% by weight (molar ratio 0.6)): 2.06 % by weight/hr | Average increase per hour of diketopiperazine derivative (3) ([3]; ethyl acetate, water content 1.1% by weight (molar ratio 1.6)): 1.32 % by weight/hr | Average increase per hour of diketopiperazine derivative (3) ([3]; ethyl acetate, water content 2.1% by weight (molar ratio 3.1)): 0.99 % by weight/hr | Average increase per hour of diketopiperazine derivative (3) ([3]; ethyl acetate, water content 3.8% by weight (molar ratio 6.1)): 0.48 % by weight/hr | Average increase per hour of diketopiperazine derivative (3) ([3]; ethyl acetate, water content 5.1% by weight (molar ratio 8.2)): 0.39 % by weight/hr | Average increase per hour of diketopiperazine derivative (3) ([3]; water, water content 100% by weight (molar ratio 160)): 0.02 % by weight/hr | Partition ratio to organic phase ([4]; 5° C.): 26% | Partition ratio to organic phase ([4]; 10° C.): 35% | Partition ratio to organic phase ([4]; 20° C.): 57% | Partition ratio to organic phase ([4]; 25° C.): 72% | Partition ratio to organic phase ([4]; 30° C.): 88% | Partition ratio to organic phase ([4]; 40° C.): 94%
SMILES: CCOC(=O)[C@H](CCc1ccccc1)N[C@@H](C)C(=O)N1CCC[C@H]1C(=O)O [N-(1(S)-ethoxycarbonyl-3-phenylpropyl)-L-alanyl-L-proline]
